Results reported in article PMC4640224, “Phosphorylation of a splice variant of collapsin response mediator protein 2 in the nucleus of tumour cells links cyclin dependent kinase-5 to oncogenesis” (BMC Cancer, 2015).

What was measured:
p25/CDK5 [1] = target: T1, p25/CDK5 (Homo sapiens, UniProt Q00535+Q15078); experiment: Peptide kinase assay with p25/CDK5; format: biochemical; settings: 100 μM peptide; for Rate of phosphorylation compared with related peptides, in words: 1.0 versus 1.1 and 1.2, 1.4 versus 1.3; for Phosphorylation of substrate class peptides, in words: 20 min, Fig. 1b
T1 construct: purchased Millipore UK Ltd, Herts, UK
T1 sequence (Q00535 whole entry): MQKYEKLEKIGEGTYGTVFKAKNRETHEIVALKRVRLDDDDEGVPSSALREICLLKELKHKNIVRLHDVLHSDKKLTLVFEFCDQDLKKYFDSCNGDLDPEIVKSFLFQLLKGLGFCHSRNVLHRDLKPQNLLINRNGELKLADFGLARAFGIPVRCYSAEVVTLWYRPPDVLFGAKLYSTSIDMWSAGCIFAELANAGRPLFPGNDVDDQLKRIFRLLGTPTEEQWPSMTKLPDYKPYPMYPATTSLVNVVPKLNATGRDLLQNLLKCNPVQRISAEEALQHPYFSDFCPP
T1 sequence (Q15078 99-307 partner limits assumed): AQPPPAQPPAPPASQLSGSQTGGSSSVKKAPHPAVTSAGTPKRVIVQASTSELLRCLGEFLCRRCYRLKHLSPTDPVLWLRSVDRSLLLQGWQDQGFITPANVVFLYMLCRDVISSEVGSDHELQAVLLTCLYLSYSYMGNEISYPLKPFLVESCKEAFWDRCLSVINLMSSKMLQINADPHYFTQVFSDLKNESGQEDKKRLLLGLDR
Method: (§1) Specific activity (pmol/min) was determined for all protein kinases by incubating known amounts of kinase (0.01-1 μg) with the generic substrate myelin basic protein (MBP, 0.3 mg/ml final) in kinase buffer (25 mM MOPS pH 7.5, 0.05 % (v/v) Brij-35, 0.25 mM EDTA, 5 % (v/v) glycerol) plus 10 mM MgCl2, and 100 μM [γ-32P] ATP (approx 0.5 × 10^6 CPM/nmol) as previously described. Peptide kinase assays were performed with 2mUnits of each kinase as above, except MBP was replaced with the peptide at the concentration given in figure legends. One unit of activity of each protein kinase was calculated as 1 nmole of phosphate transferred/min.
(§2) Fig. 1 In vitro analysis of primary sequence determinants for p35/CDK5 and p25/CDK5. a The contribution of C-terminal Arg/Lys residues to recognition and phosphorylation by each CDK5 complex was assessed by incubating the peptides at the indicated concentrations with 2 m units of each CDK5 complex for 20 mins and measuring phosphate transferred to each peptide. b Each CDK5 complex was incubated for 20 mins with 100 μM of the indicated peptides representing the primary sequence of the 4 classes of CDK5 substrates. The phosphorylated residue is underlined. c To assess the contribution of specific residues ±2 positions from the target residue a further 4 peptides (at 100 μM) were incubated with 2mUnits of each CDK5 complex for 30 mins. The residue changed from the parent sequence (peptide 1.0) is in italics in each case. *indicates p < 0.05 compared to peptide 1.0. d The rate of phosphorylation of the indicated peptides by several members of the CMGC family of kinases was compared by incubating each peptide (at 50 μM) with 2 m units (as determined against the generic substrate MBP) of each kinase for 30 mins and phosphate transfer measured. In all figures the data is presented as the average of at least two different experiments performed in duplicate ± the SEM, and is given as total picomoles transferred during the assay (a) or pmoles transferred/min (b-d)

[2] = system: CMGC protein kinase family; experiment: Peptide phosphorylation by several members of the CMGC kinase family (selectivity); format: biochemical; settings: 50 μM peptide, 2 mUnits of each kinase, 30 min, Fig. 1d
Method: as §1, §2

PICTAIRE = experiment: Peptide kinase assay with […]; format: biochemical; settings: 50 μM peptide, 2 mUnits kinase, 30 min, Fig. 1d
Method: as §1
Fig. 1 In vitro analysis of primary sequence determinants for p35/CDK5 and p25/CDK5. a The contribution of C-terminal Arg/Lys residues to recognition and phosphorylation by each CDK5 complex was assessed by incubating the peptides at the indicated concentrations with 2 m units of each CDK5 complex for 20 mins and measuring phosphate transferred to each peptide. b Each CDK5 complex was incubated for 20 mins with 100 μM of the indicated peptides representing the primary sequence of the 4 classes of CDK5 substrates. The phosphorylated residue is underlined. c To assess the contribution of specific residues ±2 positions from the target residue a further 4 peptides (at 100 μM) were incubated with 2mUnits of each CDK5 complex for 30 mins. […]

p35/CDK5 [3] = target: T2, p35/CDK5 (Homo sapiens, UniProt Q00535+Q15078); experiment: Peptide kinase assay with p35/CDK5; format: biochemical; settings: 100 μM peptide; for Rate of phosphorylation compared with related peptides, in words: 1.0 versus 1.1 and 1.2, 1.4 versus 1.3; for Phosphorylation of substrate class peptides, in words: 20 min, Fig. 1b
T2 construct: purchased Millipore UK Ltd, Herts, UK
T2 sequence (Q00535 whole entry): as the sequence (Q00535 whole entry) above
T2 sequence (Q15078 whole entry partner): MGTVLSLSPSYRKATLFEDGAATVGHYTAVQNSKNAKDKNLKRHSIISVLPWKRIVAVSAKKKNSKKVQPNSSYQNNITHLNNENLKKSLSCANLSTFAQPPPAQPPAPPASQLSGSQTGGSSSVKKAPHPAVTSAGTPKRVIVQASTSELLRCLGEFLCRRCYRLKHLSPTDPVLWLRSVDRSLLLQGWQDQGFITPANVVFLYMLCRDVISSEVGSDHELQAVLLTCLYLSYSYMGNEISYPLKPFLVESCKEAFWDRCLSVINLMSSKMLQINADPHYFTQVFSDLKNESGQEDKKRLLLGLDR
Method: as §1, §2

CDK5 = system: CDK5; parameters: method as in PMID 19075597; settings: application of carboplatin; cited from earlier work
[4] = system: CDK5 substrate phosphorylation in primary cortical neurons; experiment: Immunofluorescence of CDK5 substrate phosphorylation in primary cortical neurons; format: cell-based, rat; settings: 10 μM inhibitor, 3 h, neurons 6 days in vitro, Fig. 3a
Method: Embryonic primary cortical neurons were isolated from Sprague–Dawley rats at day 18 gestation. Briefly, following dissection, cortex was digested in 0.25 % trypsin in Hank’s balanced salt solution at 37 °C for 20 min. Cells were manually dissociated by trituration using a fire-polished Pasteur pipette and plated onto 0.01 % poly-l-lysine-coated coverslips at a density of 2–5 × 10^6 cells per 6 cm well, then incubated at 37 °C with 5 % CO2 in Neurobasal medium (Gibco) containing 2 % (vol/vol) B27 serum replacement (Invitrogen), penicillin (Sigma; 100 units/ml), streptomycin (Sigma; 100 μg/ml), and 1 % (vol/vol) L-glutamine (Sigma). HeLa and tumour cell lines were maintained in DMEM supplemented with 4.5 g/L glucose, 10 % (vol/vol) FCS, 1 % (vol/vol) penicillin (100 units/ml)/streptomycin (100 μg/ml) at 37 °C in 5 % CO2. […]
Fig. 3 Imaging of CDK5 substrate phosphorylaiton in primary cells. […] Phosphospecific antibodies were detected by Cy-3 bound 2ry antibodies (red) and nuclei were counter-stained with the DNA-binding dye DAPI (blue). […]

[5] = system: CDK5 substrate phosphorylation in primary cortical neurons; experiment: Immunohistochemistry of CDK5 substrate phosphorylation in paraffin-embedded primary neurons; format: cell-based, rat; settings: 10 μM inhibitor, 3 h, formaldehyde fixed, Fig. 3b
Method: Sections of formalin-fixed, paraffin embedded tissue were cut at a thickness of 4 μm, collected onto Polysine-coated microscope slides (VWR International) and dried overnight at 37 °C. Sections were dewaxed in Histoclear, rinsed in alcohol and endogenous peroxidase was quenched with 0.5 % hydrogen peroxide (100 volumes) in methanol at room temperature for 35 min. After washing in water, antigen retrieval was performed by boiling sections in 10 mM citrate buffer, pH 6.0 for 15 min in a microwave. After cooling, sections were rinsed in PBS and blocked with 5 % normal serum in PBS containing 5 % (v/v) avidin (Vector Laboratories, Peterborough, UK) for 30 min at room temperature. Sections were washed in PBS and incubated with primary antibody in 5 % normal serum in PBS containing 5 % (v/v) biotin at 4 °C overnight. After washing in PBS, sections were then incubated with biotinylated secondary antibody (1:250) (Vector Laboratories) for 30 min at room temperature, followed by streptavidin complexed with biotinylated peroxidase (Vectastain ABC kit; Vector Laboratories) at room temperature for 30 min. […] Cell nuclei were counterstained with haematoxylin (Sigma), dehydrated through graded alcohols, cleared in HistoClear and mounted in DPX. Images were taken using a Spot Insight QE digital camera or slides were digitally scanned (x40) using an Aperio ScanScope XT.

p35/CDK5 [6] = target: T2, p35/CDK5; format: biochemical; settings: inhibitor 10 μM, 30 min pre-incubation, GST-tau 0.5 μM, 2 mUnits kinase, Fig. 2b
Method: (§3) Recombinant protein substrates were incubated with 2mUnits of each CMGC kinase as for MBP above for the times and at the concentrations given in figure legends. Reactions were terminated by the addition of SDS-PAGE loading buffer and heating to 70 °C for 15 mins. Aliquots were subjected to SDS-PAGE, stained with Coomassie Brilliant Blue (CBR-250), the gels were dried and radiolabeled bands visualized by autoradiography. Quantification of nmoles of phosphate incorporated was obtained by excising the stained protein band from the gel and counting in scintillation fluid.
(§4) Recombinant protein substrates (0.5 μM final concentration) were incubated with 2mUnits of each CDK5 complex and MgCl2 and [γ-32P] ATP (approx 0.5x10^6 CPM/nmole) for 30 mins. Reactions were terminated by the addition of SDS-PAGE loading buffer and heating to 70 °C. […] Data is representative of at least three different experiments

p25/CDK5 [7] = target: T1, p25/CDK5; format: biochemical; settings: inhibitor 10 μM, 30 min pre-incubation, GST-tau 0.5 μM, 2 mUnits kinase, Fig. 2b
Method: as §3, §4

MCF-7 = MCF-7 breast cancer cell line; cited from earlier work
Source text: (§5) Similarly, CDK5 levels decrease in gastric cancer and its nuclear accumulation suppresses gastric tumorigenesis.

MDA-MB321 = MDA-MB321 breast cancer cell line; cited from earlier work
Source text: as §5

p35/CDK5 [8] = target: T2, p35/CDK5; experiment: Phosphorylation kinetics of recombinant protein substrates by p35/Cdk5; format: biochemical; settings: initial rate, varying substrate concentrations, Mg[γ-32P]ATP, 10 min, 30 °C, Lineweaver-Burk, ND = not determinable, not phosphorylated to a significant level; for Vmax: at least two experiments in duplicate
Method: as §3

p25/CDK5 [9] = target: T1, p25/CDK5; experiment: Phosphorylation kinetics of recombinant protein substrates by p25/Cdk5; format: biochemical; settings: initial rate, varying substrate concentrations, Mg[γ-32P]ATP, 10 min, 30 °C, Lineweaver-Burk, ND = not determinable, not phosphorylated to a significant level; for Vmax: at least two experiments in duplicate
Method: as §3

KKASAPKSPRKPRS [peptide 1.0]
Rate of phosphorylation compared with related peptides, in words (p25/CDK5 [1]; 2 mUnits, 30 min, Fig. 1c): twice the rate | Phosphorylation of substrate class peptides, in words (p25/CDK5 [1]): much better substrates | Selectivity of peptide substrate among CMGC kinases, in words [2]: highly selective for CDK5 | Phosphorylation by PICTAIRE relative to a matched amount of MBP kinase activity of CDK5 (PICTAIRE): < 80% | Rate of phosphorylation compared with related peptides, in words (p35/CDK5 [3]; 2 mUnits, 30 min, Fig. 1c): twice the rate | Phosphorylation of substrate class peptides, in words (p35/CDK5 [3]): much better substrates

KKASAPKSPPKPRS [peptide 1.3]
Reduction of rate of phosphorylation compared to peptide 1.0 and 1.1 (p25/CDK5 [1]; 2 mUnits, 30 min, Fig. 1c): > 90% | Phosphorylation by PICTAIRE compared with CDK5, in words (PICTAIRE): to a greater extent than CDK5 | Reduction of rate of phosphorylation compared to peptide 1.0 and 1.1 (p35/CDK5 [3]; 2 mUnits, 30 min, Fig. 1c): > 90%

KKPKSRRSPPSIPT [Class 3]
Phosphorylation of substrate class peptides, in words (p25/CDK5 [1]): not phosphorylated | Phosphorylation of substrate class peptides, in words (p35/CDK5 [3]): not phosphorylated

N.N.O=C([O-])C1(C(=O)[O-])CCC1.[Pt+2] [carboplatin]
Effect on CDK5 activity (CDK5): induces CDK5 activation

CC(C)[C@H](CO)Nc1nc(Nc2cccc(Cl)c2)c2ncn(C(C)C)c2n1 [purvalanol A]
CRMP2 phosphorylation at Ser522 (immunofluorescence) [4]: reduces | CRMP4 phosphorylation at Ser522 (immunofluorescence) [4]: does not alter | Intensity of staining and number of cells stained for phospho-Ser522 of CRMP2 (immunohistochemistry) [5]: reduced | Tau phosphorylation at Ser235 (immunohistochemistry) [5]: not significantly affected | Tau phosphorylation at Thr205 (immunohistochemistry) [5]: not significantly affected | Effect of CDK inhibitor on tau phosphorylation in vitro (p35/CDK5 [6]): completely blocked | Effect of CDK inhibitor on tau phosphorylation in vitro (p25/CDK5 [7]): completely blocked

KKASAPVSPRKPRS [peptide 1.2]
Selectivity of peptide substrate among CMGC kinases, in words [2]: CDK5 is the most effective kinase

CC[C@H](CO)Nc1nc(NCc2ccccc2)c2ncn(C(C)C)c2n1 [roscovitine]
Effect on proliferation (MCF-7): enhances the proliferation | Effect on proliferation (MDA-MB321): enhances the proliferation

CRMP4: recombinant collapsin response mediator protein 4, proposed CDK5 substrate
Km (p35/CDK5 [8]): 0.401 µM | Vmax (p35/CDK5 [8]): 0.665 pmol/min | Km (p25/CDK5 [9]): 0.252 µM | Vmax (p25/CDK5 [9]): 0.155 pmol/min

KKASAAKSPPKPRS [peptide 1.4]
Rate of phosphorylation compared with related peptides, in words (p25/CDK5 [1]; 2 mUnits, 30 min, Fig. 1c): did not restore phosphorylation | Rate of phosphorylation compared with related peptides, in words (p35/CDK5 [3]; 2 mUnits, 30 min, Fig. 1c): did not restore phosphorylation

CRMP1: recombinant collapsin response mediator protein 1, proposed CDK5 substrate
Km (p35/CDK5 [8]): 1.26 µM | Vmax (p35/CDK5 [8]): 0.735 pmol/min | Km (p25/CDK5 [9]): 1.46 µM | Vmax (p25/CDK5 [9]): 0.191 pmol/min

KKASAPKSPARPRS [peptide 1.1]
Selectivity of peptide substrate among CMGC kinases, in words [2]: CDK5 is the most effective kinase

KKASAPVSPPRDRK [Class 2]
Phosphorylation of substrate class peptides, in words (p25/CDK5 [1]): relatively poor substrate | Phosphorylation of substrate class peptides, in words (p35/CDK5 [3]): relatively poor substrate

KKENNVLSPLPSQA [Class 4]
Phosphorylation of substrate class peptides, in words (p25/CDK5 [1]): not phosphorylated | Phosphorylation of substrate class peptides, in words (p35/CDK5 [3]): not phosphorylated
